From ChEMBL document CHEMBL3612010, “Deprotometalation-iodolysis and computed CH acidity of 1,2,3- and 1,2,4-triazoles. Application to the synthesis of resveratrol analogues” (Bioorg Med Chem, 2015) come the findings set out here.

Assay [1] has as its system Staphylococcus aureus. Nature of the assay: Antibacterial activity against Staphylococcus aureus ATCC 25923 after 24 hrs by broth microdilution method. The assay is classed as functional. To be noted: ATCC 25923, 24 h.
Assay [2] deals with Enterococcus faecalis. Nature of the assay: Antibacterial activity against Enterococcus faecalis ATCC 29212 after 24 hrs by broth microdilution method. The assay is classed as functional. To be noted: ATCC 29212, 24 h.
For assay [3], the system named is Pseudomonas aeruginosa. Nature of the assay: Antibacterial activity against Pseudomonas aeruginosa […] after 24 hrs by broth microdilution method. The assay is classed as functional.
Assay [4] deals with Staphylococcus aureus. Briefly: Antibacterial activity against Staphylococcus aureus ATCC 29213 after 24 hrs by broth microdilution method. The assay is classed as functional. To be noted: ATCC 29213, 24 h.
In assay [5] the test system is MDA-MB-231. Nature of the assay: Antiproliferative activity against human MDA-MB-231 cells assessed as cell survival at 100 uM after 24 hrs by MTT assay relative to control. The class given is functional. To be noted: MDA-MB-231, 24 h, read-out: Survival.
For assay [6], the system named is Escherichia coli. Nature of the assay: Antibacterial activity against Escherichia coli ATCC 25922 after 24 hrs by broth microdilution method. The class given is functional. To be noted: ATCC 25922, 24 h.
Assay [7] concerns MDA-MB-231. Nature of the assay: Antiproliferative activity against human MDA-MB-231 cells assessed as cell survival at 100 uM after 48 hrs by MTT assay relative to control. The class given is functional. To be noted: MDA-MB-231, 48 h, read-out: Survival.
Assay [8] has as its system MDA-MB-231. Briefly: Antiproliferative activity human MDA-MB-231 cells assessed as cell survival after 48 hrs by MTT assay. The class given is functional, cell-based. To be noted: MDA-MB-231, 48 h.
Assay [9] relates to MDA-MB-231. Nature of the assay: Antiproliferative activity against human MDA-MB-231 cells assessed as cell survival at 25 uM after 48 hrs by MTT assay relative to control. The assay is classed as functional. To be noted: MDA-MB-231, 48 h, read-out: Survival.

Converted amounts (≈) assume the structure as drawn. Where only a bound is given, the exact number is not on record here.

In the case of `c1ccc(-c2cnn(-c3ccccc3)n2)cc1`, the MIC in [1] was 256 µg/mL (≈ 1160 µM); in [2], 128 µg/mL (≈ 578 µM); in assay [3] it was 128 µg/mL (≈ 578 µM); in assay [4], greater than 256 µg/mL; in assay [6] it was 128 µg/mL (≈ 578 µM). The viability at 100 µM in assay [5] came to 85.5%.

Consider `COc1ccc(OC)c(-c2cnn(-c3ccccc3)n2)c1`, for which the MIC in [1] worked out at 256 µg/mL (≈ 910 µM); in assay [2] it was 128 µg/mL (≈ 455 µM); in assay [3], 128 µg/mL (≈ 455 µM); in assay [4], 128 µg/mL (≈ 455 µM); in [6], 128 µg/mL (≈ 455 µM). Also, the viability at 100 µM in assay [5] came to 94%.

On to `Oc1ccc(-c2cnn(-c3ccccc3)n2)cc1`, for which the MIC in assay [1] turned out to be 128 µg/mL (≈ 539 µM); in assay [2], 64 µg/mL (≈ 270 µM); in [3] it was 128 µg/mL (≈ 539 µM); in assay [4], 64 µg/mL (≈ 270 µM); in assay [6], 128 µg/mL (≈ 539 µM). Besides, in assay [5], the viability at 100 µM stood at 102%.

For `Nc1ccc(-c2cnn(-c3ccccc3)n2)cc1`, the MIC in assay [1] came to 256 µg/mL (≈ 1080 µM); in [2], 128 µg/mL (≈ 542 µM); in [3] it was 64 µg/mL (≈ 271 µM); in assay [4], 256 µg/mL (≈ 1080 µM); in [6], 128 µg/mL (≈ 542 µM). Besides, the viability at 100 µM in [5] stood at 66%.

On to `c1ccc(-c2cnn(-c3ccccc3-c3ccccc3)n2)cc1`, for which the figures for the viability at 100 µM in [7] and in [5] were 23% and 49%, respectively. In addition, the MIC came out at 256 µg/mL (≈ 861 µM) in assay [1]; 128 µg/mL (≈ 430 µM) in assay [2]; 128 µg/mL (≈ 430 µM) in [3]; 128 µg/mL (≈ 430 µM) in [4]; 256 µg/mL (≈ 861 µM) in assay [6]. The IC50 in assay [8] was 52 µM.

Turning to `COc1ccc(-c2cnn(-c3ccccc3-c3ccc(OC)cc3)n2)cc1`, the MIC in [1], in [2], in assay [3], in assay [4] and in assay [6] was 256 µg/mL (≈ 716 µM) in each case. In assay [5], the viability at 100 µM is 75%.

For the compound `Oc1ccc(-c2cnn(-c3ccccc3-c3ccc(O)cc3)n2)cc1`, the viability at 100 µM in [7] was found to be 11%; in [5], 54.5%. The MIC in assay [1] was determined as 128 µg/mL (≈ 389 µM); in [2], 128 µg/mL (≈ 389 µM); in assay [3], 64 µg/mL (≈ 194 µM); in assay [4] it was 128 µg/mL (≈ 389 µM); in assay [6], 128 µg/mL (≈ 389 µM). Moreover, the IC50 in assay [8] came to 40 µM.

With `Nc1ccc(-c2cnn(-c3ccccc3-c3ccc(N)cc3)n2)cc1`, the viability at 100 µM was 2.5% in [7] and 44% in [5]. In addition, the minimum inhibitory concentration (MIC) came to 64 µg/mL (≈ 195 µM) in assay [1]; 128 µg/mL (≈ 391 µM) in assay [2]; 128 µg/mL (≈ 391 µM) in [3]; 128 µg/mL (≈ 391 µM) in [4]; 128 µg/mL (≈ 391 µM) in assay [6]. For the same compound, the viability at 25 µM in assay [9] was determined as 22%. Further, the IC50 in assay [8] came out at 17.5 µM.

Take `Clc1cccc(-c2cnn(-c3ccccc3-c3cccc(Cl)c3)n2)c1`: the figures for the viability at 100 µM in assay [7] and in [5] were 11% and 40.5%, respectively. Moreover, the MIC in assay [1] stood at 128 µg/mL (≈ 349 µM); in assay [2] it was 256 µg/mL (≈ 699 µM); in assay [3], 128 µg/mL (≈ 349 µM); in [4], 256 µg/mL (≈ 699 µM); in assay [6] it was 128 µg/mL (≈ 349 µM). Further, the IC50 in assay [8] turned out to be 45.5 µM.

For the compound `FC(F)(F)Oc1ccc(-n2nccn2)cc1`, the viability at 100 µM in assay [7] was determined as 24%; in [5], 58.5%. In addition, the MIC in assay [1] was determined as 256 µg/mL (≈ 1120 µM); in assay [2], 128 µg/mL (≈ 559 µM); in [3] it was 128 µg/mL (≈ 559 µM); in assay [4], 256 µg/mL (≈ 1120 µM); in assay [6] it was 256 µg/mL (≈ 1120 µM). Further, the IC50 in [8] is 67 µM.

In the case of `CC1(C)S[C@@H]2[C@H](NC(=O)[C@H](N)c3ccc(O)cc3)C(=O)N2[C@H]1C(=O)O` [AMOXICILLIN], in assay [6], it took 4 µg/mL (≈ 10.9 µM) to inhibit growth (MIC).

As to `Cc1onc(-c2ccccc2)c1C(=O)N[C@@H]1C(=O)N2[C@@H]1SC(C)(C)[C@@H]2C(=O)O` [OXACILLIN], the MIC in [1] and in [4] was less than 1 µg/mL throughout.

Consider `Oc1ccc(/C=C/c2cc(O)cc(O)c2)cc1` [RESVERATROL], for which the results for the viability at 100 µM in [7] and in assay [5] were 60.3% and 93.4%, respectively. Also, the IC50 in assay [8] is 130 µM.

On to `CC1(C)S[C@@H]2[C@H](NC(=O)[C@H](C(=O)O)c3ccsc3)C(=O)N2[C@H]1C(=O)O` [TICARCILLIN], for which 8 µg/mL (≈ 20.8 µM) was the least that counted as inhibitory in assay [3] (MIC).

In assay [2], `CN[C@H](CC(C)C)C(=O)N[C@H]1C(=O)N[C@@H](CC(N)=O)C(=O)N[C@H]2C(=O)N[C@H]3C(=O)N[C@H](C(=O)N[C@H](C(=O)O)c4cc(O)cc(O)c4-c4cc3ccc4O)[C@H](O)c3ccc(c(Cl)c3)Oc3cc2cc(c3O[C@@H]2O[C@H](CO)[C@@H](O)[C@H](O)[C@H]2O[C@H]2C[C@](C)(N)[C@H](O)[C@H](C)O2)Oc2ccc(cc2Cl)[C@H]1O` [VANCOMYCIN] came in with an MIC of less than 1 µg/mL.
